Tested on: Pcy/DBA mice
Assay: Efficacy in Pcy/DBA mouse model of PKD, alone and with tolvaptan;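 note: dosing began at 6 weeks of age, with endpoints collected 7 days after the last dose and PBS-injected wild-type DBA/2J mice as the normal reference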
Type: in vivo
[1] = RG-NG-1015 0.2 mg/kg SC Q2W, 17 weeks
[2] = RG-NG-1015 1 mg/kg SC Q2W + 0.3% Tolvaptan in chow
[3] = RG-NG-1015 1 mg/kg SC Q2W, 17 weeks
[4] = RG-NG-1015 5 mg/kg SC Q2W + 0.3% Tolvaptan in chow
[5] = RG-NG-1015 5 mg/kg SC Q2W, 17 weeks
[6] = RG-NG-1015 12.5 mg/kg SC QW, 17 weeks
[7] = RG-NG-1015 25 mg/kg SC Q2W + 0.3% Tolvaptan in chow
[8] = RG-NG-1015 25 mg/kg SC Q2W, 17 weeks
[9] = RG-NG-1015 50 mg/kg SC Q4W, 17 weeks

Method: The efficacy of RG-NG-1015 was also evaluated in the Pcy/DBA mouse model of PKD alone and in combination with tolvaptan.
As outlined in FIGS. 6A and 6B, five groups of male Pcy/DBA mice (n=13 per treatment group) were treated subcutaneously with PBS or RG-NG-1015 at 25, 5, 1, or 0.2 mg/kg once every two weeks (Q2W). Two groups of male Pcy/DBA mice (n=13 per group) were also treated with RG-NG-1015 at 50 mg/kg once every four weeks (Q4W) or at 12.5 mg/kg once weekly (QW). Another four groups of male Pcy/DBA mice (n=13 per group) were treated subcutaneously with PBS or RG-NG-1015 at 25, 5, or 1 mg/kg Q2W in combination with tolvaptan at 0.3% (w/w chow) ad libitum. A group of male WT-BDA/2J mice received subcutaneous injections of PBS Q2W was included in the study as a normal range reference. Mice were randomized into treatment groups at 5 weeks of age, and treatment started at 6 weeks of age for 17 weeks and were sacrificed 7 days after the final treatment. Kidney weight, body weight, kidney cyst index, urine Ngal-to-Creatinine ratio (Ngal/Cr) were measured.

ASGSCMAFCFUFUMUSAS [RG-NG-1015]
Mean Cystic Area [1]: 47.09% | Mean Cystic Area % Inhibition [1]: 24.8% | Mean KW/BW [1]: 78 mg/g | Mean KW/BW % Inhibition [1]: 18.7% | Mean Urine Ngal/Cr [1]: 18.38 mg/mg | Mean Urine Ngal/Cr % Inhibition [1]: 13.5% | Mean Cystic Area [2]: 41.91% | Mean Cystic Area % Inhibition [2]: 34.3% | Mean Cystic Area Bliss Analysis [2]: <Additive | Mean KW/BW [2]: 47.1 mg/g | Mean KW/BW % Inhibition [2]: 62.0% | Mean KW/BW Bliss Analysis [2]: Synergistic | Mean Urine Ngal/Cr [2]: 11.16 mg/mg | Mean Urine Ngal/Cr % Inhibition [2]: 49.8% | Mean Urine Ngal/Cr Bliss Analysis [2]: <Additive | Mean Cystic Area [3]: 50.58% | Mean Cystic Area % Inhibition [3]: 18.4% | Mean KW/BW [3]: 82.4 mg/g | Mean KW/BW % Inhibition [3]: 12.5% | Mean Urine Ngal/Cr [3]: 15.18 mg/mg | Mean Urine Ngal/Cr % Inhibition [3]: 29.6% | Mean Cystic Area [4]: 37.47% | Mean Cystic Area % Inhibition [4]: 42.5% | Mean Cystic Area Bliss Analysis [4]: <Additive | Mean KW/BW [4]: 45.6 mg/g | Mean KW/BW % Inhibition [4]: 64.1% | Mean KW/BW Bliss Analysis [4]: Synergistic | Mean Urine Ngal/Cr [4]: 5.84 mg/mg | Mean Urine Ngal/Cr % Inhibition [4]: 76.6% | Mean Urine Ngal/Cr Bliss Analysis [4]: Additive | Mean Cystic Area [5]: 44.58% | Mean Cystic Area % Inhibition [5]: 29.4% | Mean KW/BW [5]: 70 mg/g | Mean KW/BW % Inhibition [5]: 29.9% | Mean Urine Ngal/Cr [5]: 14.65 mg/mg | Mean Urine Ngal/Cr % Inhibition [5]: 32.3% | Mean Cystic Area [6]: 44.99% | Mean Cystic Area % Inhibition [6]: 28.7% | Mean KW/BW [6]: 74.5 mg/g | Mean KW/BW % Inhibition [6]: 23.6% | Mean Urine Ngal/Cr [6]: 8.82 mg/mg | Mean Urine Ngal/Cr % Inhibition [6]: 61.6% | Mean Cystic Area [7]: 38.61% | Mean Cystic Area % Inhibition [7]: 40.4% | Mean Cystic Area Bliss Analysis [7]: <Additive | Mean KW/BW [7]: 42.2 mg/g | Mean KW/BW % Inhibition [7]: 68.9% | Mean KW/BW Bliss Analysis [7]: Synergistic | Mean Urine Ngal/Cr [7]: 5.04 mg/mg | Mean Urine Ngal/Cr % Inhibition [7]: 80.6% | Mean Urine Ngal/Cr Bliss Analysis [7]: Additive | Mean Cystic Area [8]: 46.46% | Mean Cystic Area % Inhibition [8]: 26.0% | Mean KW/BW [8]: 66.9 mg/g | Mean KW/BW % Inhibition [8]: 34.3% | Mean Urine Ngal/Cr [8]: 11.36 mg/mg | Mean Urine Ngal/Cr % Inhibition [8]: 48.8% | Mean Cystic Area [9]: 47.35% | Mean Cystic Area % Inhibition [9]: 24.3% | Mean KW/BW [9]: 67.1 mg/g | Mean KW/BW % Inhibition [9]: 34.0% | Mean Urine Ngal/Cr [9]: 9.32 mg/mg | Mean Urine Ngal/Cr % Inhibition [9]: 59.1%

Source: patent US12559750B2, “Methods and compositions for treatment of polycystic kidney disease” (Regulus Therapeutics Inc., priority 2021, dated 2026)
